Experiment: Plasma exposure after oral administration of formulations in rats (LC-MS/MS, WinNonlin)
Method: In this study, the exposure and distribution of darunavir and efavirenz were evaluated following oral administration in male Sprague-Dawley rats. Four cohorts of 10 rats each were used in this study. The first cohort involved darunavir using the disclosed formulations and the second cohort darunavir in a control formulation. The third cohort involved efavirenz using the disclosed formulations and the fourth cohort efavirenz in a control formulation.
Formulations were administered orally (PO) at 10 mg/kg of darunavir or efavirenz. Following dosing, blood, urine and fecal samples were collected up to 8-hour post dose (groups 1, 3, 5, and 7) or 24-hour post dose (groups 2, 4, 6, and 8). Brain tissue was collected at 8 hours or 24 hours, following the 8 hour or 24-hour urine and feces sample collection. Plasma, urine, feces, and brain tissue concentrations of the analytes were determined by LC-MS/MS. Plasma pharmacokinetic parameters were determined using WinNonlin (v8.0) software.
Plasma, urine, feces, and brain tissue samples were extracted and analyzed using the methods described as follows.
Analytical stock solutions (1.00 mg/mL of the free drug) were prepared in DMSO. Sample Homogenization Brain tissue and feces samples were homogenized with a Virsonic 100 ultrasonic homogenizer. Each brain tissue sample was first weighed, and then an appropriate volume of 20:80 methanol:water was added to make a 2 mL/gram sample. Samples were then homogenized on ice, and stored frozen until analysis. Feces samples were homogenized with 20:80 MeOH:water (8 mL/gram of tissue) prior to extraction. Standard Preparation (Plasma, Urine, and Brain) Standards were prepared in rat plasma containing sodium heparin as the anticoagulant, or in blank tissue homogenate. Working solutions were prepared in 50:50 acetonitrile:water. […] Diluted urine samples were quantified against the rat plasma calibration curve. Brain and feces tissue homogenates were quantified against calibration curves prepared in matched blank tissue homogenate.

Row | plasma concentration of disclosed compositions versus control formulations (rat, in vivo) | Structure (SMILES) | plasma concentration of disclosed compositions versus control formulations (disclosed compositions compared with compositions without the bioavailability agents) | average plasma concentration (test animals (disclosed test formulation), at 1 hour)
1 | – | CC(C)CN(C[C@@H](O)[C@H](Cc1ccccc1)NC(=O)O[C@H]1CO[C@H]2OCC[C@H]21)S(=O)(=O)c1ccc(N)cc1 [darunavir] | double | approximately 306 ng/mL
2 | higher levels | O=C1Nc2ccc(Cl)cc2[C@@](C#CC2CC2)(C(F)(F)F)O1 [efavirenz] | – | –

Reference: patent US11311559B2, “Compositions and methods for enhanced delivery of antiviral agents” (POVIVA CORP., priority 2020, dated 2022)
